Experimental data reported in PMC12198282, “Application of a high-density microelectrode array assay using a 3D human iPSC-derived brain microphysiological system model for in vitro neurotoxicity screening of environmental compounds” (Archives of Toxicology, 2025).
“Also recorded” adds a separate entry of the source. Read-outs that look alike come from different tables or passages of the source.

Key:
[1] = tested on: human iPSC-derived 3D BrainSpheres; test: BrainSphere MEA assay (HD-MEA, 13-day exposure, concentration-response); type: cell-based; settings: for EC (benchmark response 1.349 SD): 312 h
Summary of the method: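 7-week-differentiated BrainSpheres were plated on laminin/poly-D-lysine-coated HD-MEA chips and given 2 days to attach. Neural activity was recorded from the same regions of interest through a 13-day exposure, from day 0 onward. Ten network and general activity endpoints were derived per BrainSphere, with ≥3 biological replicates.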

2D rat cortical cultures = settings: cytotoxicity LDH, cited from earlier work; for hitc CCTE_Shafer_MEA_dev_LDH: rNFA mc5 hit call
[2] = Homo sapiens, read-out: BMD Mean.Spheroid.Burst.ISI
[3] = Homo sapiens, read-out: BMD Mean.Spheroid.Nonburst.ISI
[4] = Homo sapiens, read-out: ac50 Mean.Spheroid.Burst.Duration
[5] = Homo sapiens, read-out: ac50 Mean.Spheroid.Burst.ISI
[6] = Homo sapiens, read-out: ac50 Mean.Spheroid.Burst.Peak.Firing.Rate
[7] = Homo sapiens, read-out: ac50 Mean.Spheroid.IBI
[8] = Homo sapiens, read-out: ac50 Mean.Spheroid.Spikes.per.Burst
[9] = Homo sapiens, read-out: ac50 Mean.Spheroid.Spikes.per.Burst.per.Electrode
[10] = Homo sapiens, read-out: ac50 Spheroid.Spike.Amplitude.90th.Percentile
[11] = AUC over 13-day exposure, tcplfit2
[12] = tcplfit2 BMD at benchmark response (1.349*SD of baseline controls)
[13] = tcplfit2 output ACC, activity cutoff in Supplemental Table 1

CN(C)C(=O)C(CCN1CCC(O)(c2ccc(Cl)cc2)CC1)(c1ccccc1)c1ccccc1 [Loperamide]
ACC Mean.Spheroid.Burst.Duration [1]: 0.076 µM | ACC Mean.Spheroid.Burst.ISI [1]: 0.019 µM | ACC Mean.Spheroid.Burst.Peak.Firing.Rate [1]: 0.065 µM | ACC Mean.Spheroid.Firing.Rate [1]: 0.036 µM | ACC Mean.Spheroid.IBI [1]: 0.9 µM | ACC Mean.Spheroid.Nonburst.ISI [1]: 0.97 µM | ACC Mean.Spheroid.Spikes.per.Burst [1]: 0.08 µM | ACC Mean.Spheroid.Spikes.per.Burst.per.Electrode [1]: 0.082 µM | ACC Spheroid.Burst.Frequency [1]: 0.026 µM | ACC Spheroid.Spike.Amplitude.90th.Percentile [1]: 6.6 µM | BMD Mean.Spheroid.Burst.Duration [1]: 0.087 µM | BMD Mean.Spheroid.Burst.Peak.Firing.Rate [1]: 0.071 µM | BMD Mean.Spheroid.Firing.Rate [1]: 0.025 µM | BMD Mean.Spheroid.IBI [1]: 0.83 µM | BMD Mean.Spheroid.Spikes.per.Burst [1]: 0.054 µM | BMD Mean.Spheroid.Spikes.per.Burst.per.Electrode [1]: 0.07 µM | BMD Spheroid.Burst.Frequency [1]: 0.031 µM | BMD Spheroid.Spike.Amplitude.90th.Percentile [1]: 2.6 µM | Bioactivity trend over time for MFR, mean spike amplitude and burst frequency (qualitative) [1]: appeared to decrease activity | Difference of minimum potency between BrainSphere MEA assay and rNFA [1]: ≤ 0.5 log10 µM | Percent active [1]: 100% | hitc Mean.Spheroid.Burst.Duration [1]: 1 | hitc Mean.Spheroid.Burst.ISI [1]: 1 | hitc Mean.Spheroid.Burst.Peak.Firing.Rate [1]: 1 | hitc Mean.Spheroid.Firing.Rate [1]: 1 | hitc Mean.Spheroid.IBI [1]: 1 | hitc Mean.Spheroid.Nonburst.ISI [1]: 1 | hitc Mean.Spheroid.Spikes.per.Burst [1]: 1 | hitc Mean.Spheroid.Spikes.per.Burst.per.Electrode [1]: 1 | hitc Spheroid.Burst.Frequency [1]: 1 | hitc Spheroid.Spike.Amplitude.90th.Percentile [1]: 1 | EC (benchmark response 1.349 SD) [1, 2]: 0.04 µM | EC (benchmark response 1.349 SD) [1, 3]: 0.95 µM | AC50 [1, 4]: 0.14 µM | AC50 [1, 5]: 0.1 µM | AC50 [1, 6]: 0.12 µM | AC50 ([1]; Homo sapiens, read-out: ac50 Mean.Spheroid.Firing.Rate): 0.023 µM | AC50 [1, 7]: 0.91 µM | AC50 ([1]; Homo sapiens, read-out: ac50 Mean.Spheroid.Nonburst.ISI): 0.99 µM | AC50 [1, 8]: 0.073 µM | AC50 [1, 9]: 0.094 µM | AC50 [1, 10]: 8.9 µM | AC50 ([1]; read-out: ac50 Mean.Spheroid.Burst.Duration): 0.145 µM | AC50 ([1]; read-out: ac50 Mean.Spheroid.Burst.ISI): 0.103 µM | AC50 ([1]; read-out: ac50 Mean.Spheroid.Burst.Peak.Firing.Rate): 0.115 µM | AC50 ([1]; read-out: ac50 Mean.Spheroid.Nonburst.ISI): 0.989 µM | AC50 ([1]; read-out: ac50 Spheroid.Spike.Amplitude.90th.Percentile): 8.93 µM | AC50 (2D rat cortical cultures; read-out: ac50 CCTE_Shafer_MEA_dev_LDH, rNFA mc5): 2.94 µM

CC(C)(c1ccc(O)cc1)c1ccc(O)cc1 [Bisphenol A]
Difference of minimum potency between BrainSphere MEA assay and rNFA ([1]; 5th percentile of AC50 values by chemical, above 0.5 = more potent in the rNFA): ≤ 0.5 log10 µM | hitc Mean.Spheroid.Burst.Duration [1, 11]: 1 | hitc Mean.Spheroid.Burst.ISI [1, 11]: 1 | hitc Mean.Spheroid.Burst.Peak.Firing.Rate [1, 11]: 1 | hitc Mean.Spheroid.Firing.Rate [1, 11]: 1 | hitc Mean.Spheroid.IBI [1, 11]: 1 | hitc Mean.Spheroid.Nonburst.ISI [1, 11]: 0 | hitc Mean.Spheroid.Spikes.per.Burst [1, 11]: 1 | hitc Mean.Spheroid.Spikes.per.Burst.per.Electrode [1, 11]: 1 | hitc Spheroid.Burst.Frequency [1, 11]: 1 | hitc Spheroid.Spike.Amplitude.90th.Percentile [1, 11]: 1 | EC50 ([1]; Homo sapiens, 5th percentile across active AC50 values per chemical, read-out: Minimum potency): 29.1 µM | EC (benchmark response 1.349 SD) ([1]; Homo sapiens, tcplfit2 BMD at benchmark response (1.349*SD of baseline controls), read-out: BMD Mean.Spheroid.Burst.ISI): 27 µM | EC (benchmark response 1.349 SD) ([1]; Homo sapiens, tcplfit2 BMD at benchmark response (1.349*SD of baseline controls), read-out: BMD Mean.Spheroid.Nonburst.ISI): 50 µM | AC50 ([1]; Homo sapiens, concentration at 50% maximal activity, Supplement 3 prints it also for curves with hit call 0, read-out: ac50 Mean.Spheroid.Burst.Duration): 29.4 µM | AC50 ([1]; Homo sapiens, concentration at 50% maximal activity, Supplement 3 prints it also for curves with hit call 0, read-out: ac50 Mean.Spheroid.Burst.ISI): 29.2 µM | AC50 ([1]; Homo sapiens, concentration at 50% maximal activity, Supplement 3 prints it also for curves with hit call 0, read-out: ac50 Mean.Spheroid.Burst.Peak.Firing.Rate): 30 µM | AC50 ([1]; Homo sapiens, concentration at 50% maximal activity, Supplement 3 prints it also for curves with hit call 0, read-out: ac50 Mean.Spheroid.Firing.Rate): 29 µM | AC50 ([1]; Homo sapiens, concentration at 50% maximal activity, Supplement 3 prints it also for curves with hit call 0, read-out: ac50 Mean.Spheroid.IBI): 45 µM | AC50 ([1]; Homo sapiens, concentration at 50% maximal activity, Supplement 3 prints it also for curves with hit call 0, read-out: ac50 Mean.Spheroid.Nonburst.ISI): 45 µM | AC50 ([1]; Homo sapiens, concentration at 50% maximal activity, Supplement 3 prints it also for curves with hit call 0, read-out: ac50 Mean.Spheroid.Spikes.per.Burst): 45 µM | AC50 ([1]; Homo sapiens, concentration at 50% maximal activity, Supplement 3 prints it also for curves with hit call 0, read-out: ac50 Mean.Spheroid.Spikes.per.Burst.per.Electrode): 29.1 µM | AC50 ([1]; Homo sapiens, concentration at 50% maximal activity, Supplement 3 prints it also for curves with hit call 0, read-out: ac50 Spheroid.Burst.Frequency): 45 µM | AC50 ([1]; Homo sapiens, concentration at 50% maximal activity, Supplement 3 prints it also for curves with hit call 0, read-out: ac50 Spheroid.Spike.Amplitude.90th.Percentile): 45 µM | EC50 ([1]; Homo sapiens, mean across active AC50 values per chemical, read-out: Mean potency): 36.3 µM | AC50 ([1]; concentration at 50% maximal activity, Supplement 3 prints it also for curves with hit call 0, read-out: ac50 Mean.Spheroid.Burst.Peak.Firing.Rate): 29.6 µM | AC50 ([1]; concentration at 50% maximal activity, Supplement 3 prints it also for curves with hit call 0, read-out: ac50 Mean.Spheroid.Firing.Rate): 29.3 µM | Percent active ([1]; metrics active out of the total number of metrics screened): 90% | BMD Mean.Spheroid.Burst.Duration [1, 12]: 28 µM | BMD Mean.Spheroid.Burst.Peak.Firing.Rate [1, 12]: 28 µM | BMD Mean.Spheroid.Firing.Rate [1, 12]: 30 µM | BMD Mean.Spheroid.IBI [1, 12]: 31 µM | BMD Mean.Spheroid.Spikes.per.Burst [1, 12]: 40 µM | BMD Mean.Spheroid.Spikes.per.Burst.per.Electrode [1, 12]: 28 µM | BMD Spheroid.Burst.Frequency [1, 12]: 47 µM | BMD Spheroid.Spike.Amplitude.90th.Percentile [1, 12]: 33 µM | ACC Mean.Spheroid.Burst.Duration [1, 13]: 27 µM | ACC Mean.Spheroid.Burst.ISI [1, 13]: 26 µM | ACC Mean.Spheroid.Burst.Peak.Firing.Rate [1, 13]: 28 µM | ACC Mean.Spheroid.Firing.Rate [1, 13]: 31 µM | ACC Mean.Spheroid.IBI [1, 13]: 44 µM | ACC Mean.Spheroid.Nonburst.ISI [1, 13]: 58 µM | ACC Mean.Spheroid.Spikes.per.Burst [1, 13]: 50 µM | ACC Mean.Spheroid.Spikes.per.Burst.per.Electrode [1, 13]: 29 µM | ACC Spheroid.Burst.Frequency [1, 13]: 42 µM | ACC Spheroid.Spike.Amplitude.90th.Percentile [1, 13]: 44 µM | Hits ([1]; total number of active endpoints out of 10 MEA activity metrics, 13-day exposure): 9 | hitc CCTE_Shafer_MEA_dev_LDH (2D rat cortical cultures): 0

CC(=O)Nc1ccc(O)cc1 [Acetaminophen]
Bioactivity across the 10 MEA endpoints of the BrainSphere MEA assay (in words) [1]: inactive in both assays; also recorded: inactive across all endpoints; also recorded: inactivity across all metrics in both models | Bioactivity trend over time for MFR, mean spike amplitude and burst frequency (qualitative) [1]: no clear chemical-dependent effects were observed | Hits [1]: 0 | Percent active [1]: 0% | hitc Mean.Spheroid.Burst.Duration [1]: 0 | hitc Mean.Spheroid.Burst.ISI [1]: 0 | hitc Mean.Spheroid.Burst.Peak.Firing.Rate [1]: 0 | hitc Mean.Spheroid.Firing.Rate [1]: 0 | hitc Mean.Spheroid.IBI [1]: 0 | hitc Mean.Spheroid.Nonburst.ISI [1]: 0 | hitc Mean.Spheroid.Spikes.per.Burst [1]: 0 | hitc Mean.Spheroid.Spikes.per.Burst.per.Electrode [1]: 0 | hitc Spheroid.Burst.Frequency [1]: 0 | hitc Spheroid.Spike.Amplitude.90th.Percentile [1]: 0 | EC (benchmark response 1.349 SD) [1, 2]: 415 µM | EC (benchmark response 1.349 SD) [1, 3]: 163 µM | AC50 [1, 4]: 4.7 µM | AC50 [1, 5]: 45 µM | AC50 [1, 6]: 0.37 µM | AC50 [1, 7]: 1.8 µM | AC50 [1, 8]: 6 µM | AC50 [1, 9]: 0.39 µM | AC50 ([1]; Homo sapiens, read-out: ac50 Spheroid.Burst.Frequency): 0.61 µM | AC50 [1, 10]: 0.24 µM | hitc CCTE_Shafer_MEA_dev_LDH (2D rat cortical cultures): 0
